How the values were obtained:
ERK = ERK phosphorylation, in cell ELISA in differentiated SH-SY5Y cells; format: cell-based, human; conditions: for ERK phosphorylation increase vs unstimulated control: 10 min, 150 ng/mL BDNF or 10 μM peptide, three independent replicas in duplicate; for EC50 / maximal effect (Emax) of ERK phosphorylation: dose–response, differentiated SH-SY5Y, two independent replicas in duplicate; for maximal effect (Emax) of ERK phosphorylation: BDNF and d-bdnf not significantly different
Protocol: Figure 1 Activation of the TrkB receptor by BDNF and its mimetic peptide ligands. (A) Schematic picture of the human TrkB receptor fused to the EGFP construct (hTrkB-EGFP); recombinant human mature BDNF (hBDNF); monomeric peptide, m-bdnf; dimeric peptide, d-bdnf; scrambled s-bdnf. (B) WB showing Tyr phosphorylation (p-Tyr, top) and total TrkB levels (bottom) in SH-SY5Y cells transfected with hTrkB-EGFP in the absence (ctrl) or presence of 10 min stimulation with 150 ng/mL BDNF or 10 μM m-bdnf, d-bdnf, or s-bdnf. Samples were immunoprecipitated (IP) with the anti-GFP antibody before WB. The relative density of the bands is reported on the right of the blots, as mean ± SEM of five (BDNF) and four (peptides) independent replicas; each p-Tyr band density was divided for the respective TrkB band and normalized to the ctrl signal (***p < 0.001, *p < 0.05 vs ctrl, according to one-way ANOVA with Bonferroni’s multiple comparison test). (C) Scatter dot plot of ERK (left) and AKT (right) phosphorylation levels detected in differentiated SH-SY5Y cells, after stimulation with the same treatments as in (B). Phosphorylation levels were normalized to the cell number and reported as percentage versus the ctrl. Data ± SD were pooled from three independent replicas performed in duplicate. (D) ERK phosphorylation dose–response curve of BDNF and d-bdnf. Data ± SEM were pooled from two independent replicas performed in duplicate. (E) Intensity image of a TrkB-EGFP transfected cell (scale bar 10 μm). White square defines a region of the image that contains both the cell membrane and the background signal. […] The dashed black lines identify the mean values of B for the monomer and the dimer, as indicated. (G) Bar graph of mean ± SD ‘B-1’ values retrieved from N&B analysis for all the different conditions measured. The horizontal dashed lines indicate the ‘B-1’ average values assigned to the monomer (based on data from f-EGFP) and the dimer. Data (round circles) were pooled from two independent experiments. A one-way ANOVA with Dunnett’s multiple comparisons test was applied to compare data to the f-EGFP reference (*p < 0.05, ***p < 0.001, ****p < 0.0001). […]
(§1) ERK and AKT phosphorylation were assessed in a 96-well plate format, performing an in cell ELISA assay as previously described 4. SH-SY5Y or HEK 293T cells were seeded at a density of 5.000 and 80.000 cell/well in 96 multiwell respectively, and the former were differentiated as describe above.
Cells were treated as described for TrkB phosphorylation or reported in the graphs, then washed with 0.1% Triton X-100 in PBS and fixed with 4% paraformaldehyde. Cells were then permeabilized (1% BSA; 0.1% Triton X-100 in PBS) for 1 hour, at the end, cells were incubated overnight at 4°C with anti-phospho ERK (1:500, sc-7383, Santa Cruz) or phosphor AKT (1:500, sc-16646-R-, Santa Cruz) antibodies. Next day, after the incubation with HRP-conjugated secondary antibody (anti-mouse # 31430, Invitrogen; anti-rabbit A0545, Sigma-Aldrich) the TMB substrate was added and the absorbance was read at 450 nm. Cells were incubated with only the secondary antibody to obtain the aspecific binding (Blanks). The absorbances were normalized to the relative number of cells in each well that was determined using Crystal Violet staining. […]
°C with chicken anti-BDNF (1:100, G164A Promega) antibody diluted in 2.5% BSA/PBS. The next morning samples were incubated with an Alexa568-conjugated anti-chicken secondary antibody (1:500, Thermofisher) in 2.5% BSA/PBS for 2h at room temperature. Coverslips were mounted with Fluoroshield-DAPI (Sigma-Aldrich) and imaged with a laser scanning confocal microscope (Nikon A1, Eclipse Ti), using a 60× oil objective (NA 1 .40) and pinhole set to 1 AU. Images were acquired […]
nm laser (emission window 545-645 nm). BDNF fluorescence intensity was analysed using FIJI ImageJ software. Briefly, the background intensity was subtracted from all red channel fields and an […]

AKT = AKT phosphorylation, in cell ELISA in differentiated SH-SY5Y cells; format: cell-based, human; conditions: 10 min; 150 ng/mL BDNF or 10 μM peptide; three independent replicas in duplicate
Protocol: as §1
Cells were treated as described for TrkB phosphorylation or reported in the graphs, then washed with 0.1% Triton X-100 in PBS and fixed with 4% paraformaldehyde. Cells were then permeabilized (1% BSA; 0.1% Triton X-100 in PBS) for 1 hour, at the end, cells were incubated overnight at 4°C with anti-phospho ERK (1:500, sc-7383, Santa Cruz) or phosphor AKT (1:500, sc-16646-R-, Santa Cruz) antibodies. Next day, after the incubation with HRP-conjugated secondary antibody (anti-mouse # 31430, Invitrogen; anti-rabbit A0545, Sigma-Aldrich) the TMB substrate was added and the absorbance was read at 450 nm. Cells were incubated with only the secondary antibody to obtain the aspecific binding (Blanks). The absorbances were normalized to the relative number of cells in each well that was determined using Crystal Violet staining.
SH-SY5Y Immunofluorescence analysis
SH-SY5Y cells were seeded on a 24-well plate (5.000 cell/well) and differentiated with retinoic acid as describe above. Cells were treated for 60’ in an unsupplemented medium with BDNF (150 ng/ml) or d-bdnf (10 µM) alone or in combination. Samples were then fixed (4% PFA, 5% sucrose/PBS, 15 min) and subjected to a non-permeabilizing immunofluorescence assay. Briefly, cells were incubated with the blocking solution (5% BSA/PBS) for 1 h at room temperature and incubated overnight at 4 °C with chicken anti-BDNF (1:100, G164A Promega) antibody diluted in 2.5% BSA/PBS. The next morning samples were incubated with an Alexa568-conjugated anti-chicken secondary antibody (1:500, Thermofisher) in 2.5% BSA/PBS for 2h at room temperature. Coverslips were mounted with Fluoroshield-DAPI (Sigma-Aldrich) and imaged with a laser scanning confocal microscope (Nikon A1, Eclipse Ti), using a 60× oil objective (NA 1 .40) and pinhole set to 1 AU. Images were acquired […]
nm laser (emission window 545-645 nm). BDNF fluorescence intensity was analysed using FIJI ImageJ software. Briefly, the background intensity was subtracted from all red channel fields and an image threshold was applied to calculate the mean fluorescence intensity of the cells only. Results shown constitute the pool of fields stemming from two replicates.
ReNCell cell culture, differentiation and immunofluorescence analysis

Molecule	EC50 (ERK) [µM]	EC50 (ERK; referred to the monomer form) [µM]	ERK phosphorylation increase vs unstimulated control (ERK)	AKT phosphorylation increase vs unstimulated control (AKT)	maximal effect (Emax) of ERK phosphorylation (ERK)
HSDPARRGELSV-NH2 [m-bdnf, linear peptide fragment encompassing the first 12 amino acids of the mature NT N-terminal]			only BDNF and d-bdnf were able to induce a significant ERK and AKT phosphorylation increase	only BDNF and d-bdnf were able to induce a significant ERK and AKT phosphorylation increase	
SRAGPHLRDVSE-NH2 [s-bdnf]			only BDNF and d-bdnf were able to induce a significant ERK and AKT phosphorylation increase	only BDNF and d-bdnf were able to induce a significant ERK and AKT phosphorylation increase	

Now from value to molecule, other results behind:

EC50 (ERK) [µM]	EC50 (ERK; referred to the monomer form) [µM]	Molecule	ERK phosphorylation increase vs unstimulated control (ERK)	AKT phosphorylation increase vs unstimulated control (AKT)	maximal effect (Emax) of ERK phosphorylation (ERK)
13.6 ± 3.87		HSDPARRGELSVC-C-VSLEGRRAPDSH (disulfide) [d-bdnf]	significant ERK and AKT phosphorylation increase	significant ERK and AKT phosphorylation increase	227.3 ± 6.3
	0.00069 ± 0.00024	brain-derived neurotrophic factor (protein, UniProt P23560 1-247, looked up, full-length, full-length human BDNF produced recombinantly in Escherichia coli) MTILFLTMVISYFGCMKAAPMKEANIRGQGGLAYPGVRTHGTLESVNGPKAGSRGLTSLADTFEHVIEELLDEDQKVRPNEENNKDADLYTSRVMLSSQVPLEPPLLFLLEEYKNYLDAANMSMRVRRHSDPARRGELSVCDSISEWVTAADKKTAVDMSGGTVTVLEKVPVSKGQLKQYFYETKCNPMGYTKEGCRGIDKRHWNSQCRTTQSYVRALTMDSKKRIGWRFIRIDTSCVCTLTIKRGR	significant ERK and AKT phosphorylation increase	significant ERK and AKT phosphorylation increase	237.1 ± 5.0

Source: article PMC9732821, “Neurotrophic Activity and Its Modulation by Zinc Ion of a Dimeric Peptide Mimicking the Brain-Derived Neurotrophic Factor N-Terminal Region” (ACS Chemical Neuroscience, 2022)
